Experiments:
Type in all cases: in vivo
[1] = test system: pigweed (Amaranthus retroflexus); experiment: Test A preemergence; conditions: Amaranthus retroflexus, pre-emergence, 240 h, 0 to 100 scale where 0 is no effect and 100 is complete control, read-out: Pigweed plant response rating
[2] = test system: barnyardgrass (Echinochloa crus-galli); experiment: Test A preemergence; conditions: Echinochloa crus-galli, pre-emergence, 240 h, 0 to 100 scale where 0 is no effect and 100 is complete control, read-out: Barnyardgrass plant response rating
Outline: (§1)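 Visual injury, scored on a 0–100 scale relative to untreated controls, was recorded about 10 d after application. Treatments were a preemergence soil spray over planted seeds or a postemergence spray on plants at the one- to two-leaf stage, 2 to 10 cm tall, all in loam soil–sand blend in the greenhouse.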

[3] = test system: giant foxtail (Setaria faberii); experiment: Test A preemergence; conditions: Setaria faberi, pre-emergence, 240 h, 0 to 100 scale where 0 is no effect and 100 is complete control, read-out: Foxtail, Giant plant response rating
Outline: as §1

Kochia (Kochia scoparia) [4] = experiment: Test A preemergence; conditions: Bassia scoparia, pre-emergence, 240 h, 0 to 100 scale where 0 is no effect and 100 is complete control, read-out: Kochia plant response rating
Outline: as §1

[5] = test system: ragweed (common ragweed, Ambrosia elatior); experiment: Test A preemergence; conditions: Ambrosia artemisiifolia, pre-emergence, 240 h, 0 to 100 scale where 0 is no effect and 100 is complete control, read-out: Ragweed plant response rating
Outline: as §1

[6] = test system: ryegrass, Italian (Italian ryegrass, Lolium multiflorum); experiment: Test A preemergence; conditions: Lolium multiflorum, pre-emergence, 240 h, 0 to 100 scale where 0 is no effect and 100 is complete control, read-out: Ryegrass, Italian plant response rating
Outline: as §1

[7] = test system: pigweed (Amaranthus retroflexus); experiment: Test A postemergence; conditions: Amaranthus retroflexus, post-emergence, 240 h, Postemergence, read-out: Pigweed plant response rating (0 to 100 scale)
Outline: as §1

[8] = test system: barnyardgrass (Echinochloa crus-galli); experiment: Test A postemergence; conditions: Echinochloa crus-galli, post-emergence, 240 h, Postemergence
Outline: as §1

[9] = test system: giant foxtail (Setaria faberii); experiment: Test A postemergence; conditions: Setaria faberi, post-emergence, 240 h, Postemergence, read-out: Foxtail, Giant plant response rating (0 to 100 scale)
Outline: as §1

[10] = test system: wheat (Triticum aestivum); experiment: Test A postemergence; conditions: Triticum aestivum, post-emergence, 240 h, Postemergence, read-out: Wheat plant response rating (0 to 100 scale)
Outline: as §1

[11] = test system: blackgrass (Alopecurus myosuroides); experiment: Test A postemergence; conditions: Alopecurus myosuroides, post-emergence, 240 h, Postemergence, read-out: Blackgrass plant response rating (0 to 100 scale)
Outline: as §1

[12] = test system: Galium (catchweed bedstraw, Galium aparine); experiment: Test A postemergence; conditions: Galium, post-emergence, 240 h, Postemergence, read-out: Galium plant response rating (0 to 100 scale)
Outline: as §1

Kochia (Kochia scoparia) [13] = experiment: Test A postemergence; conditions: Bassia scoparia, post-emergence, 240 h, Postemergence, read-out: Kochia plant response rating (0 to 100 scale)
Outline: as §1

[14] = test system: ragweed (common ragweed, Ambrosia elatior); experiment: Test A postemergence; conditions: Ambrosia artemisiifolia, post-emergence, 240 h, Postemergence, read-out: Ragweed plant response rating (0 to 100 scale)
Outline: as §1

[15] = test system: ryegrass, Italian (Italian ryegrass, Lolium multiflorum); experiment: Test A postemergence; conditions: Lolium multiflorum, post-emergence, 240 h, Postemergence, read-out: Ryegrass, Italian plant response rating (0 to 100 scale)
Outline: as §1

corn (Zea mays) = experiment: Test A postemergence; conditions: Zea mays, post-emergence, 240 h, Postemergence, read-out: Corn plant response rating (0 to 100 scale)
Outline: as §1

[16] = test system: sedge, umbrella (small-flower umbrella sedge, Cyperus difformis); experiment: Test B flooded paddy test; conditions: Cyperus difformis, 250 g ai/ha, Flood; 0 to 100 scale where 0 is no effect and 100 is complete control; read-out: Sedge, Umbrella plant response rating
Outline: (§2)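 Percent control, visually estimated after 13–15 d in the greenhouse on a 0–100 basis, compares treated pots with untreated ones; compound was put into paddy water 3 cm above the soil when plants had two leaves.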

[17] = test system: barnyardgrass (Echinochloa crus-galli); experiment: Test B flooded paddy test; conditions: Echinochloa crus-galli, 250 g ai/ha, Flood; 0 to 100 scale where 0 is no effect and 100 is complete control; read-out: Barnyardgrass plant response rating
Outline: as §2

[18] = test system: ducksalad (Heteranthera limosa); experiment: Test B flooded paddy test; conditions: Heteranthera limosa, 250 g ai/ha, Flood; 0 to 100 scale where 0 is no effect and 100 is complete control; read-out: Ducksalad plant response rating
Outline: as §2

rice (Oryra sativa) = experiment: Test B flooded paddy test; conditions: Oryza sativa, 250 g ai/ha, Flood; 0 to 100 scale where 0 is no effect and 100 is complete control; read-out: Rice plant response rating
Outline: as §2

[19] = 125 g ai/ha, preemergence, visual injury rating, approximately 10 d
[20] = 125 g ai/ha, visual rating about 10 d after treatment
[21] = 31 g ai/ha, 0 is no effect, 100 is complete control

Cc1ccc([C@H]2CN(C)C(=O)[C@@H]2C(=O)Nc2c(F)c(F)c(F)c(F)c2F)cc1 [Compound 1292]
pest or weed control at 31 g/ha ([1]; 31 g ai/ha, Preemergence): 40% | pest or weed control at 125 g/ha [1, 19]: 40% | pest or weed control at 31 g/ha ([2]; 31 g ai/ha, Preemergence): 0% | pest or weed control at 125 g/ha [2, 19]: 50% | pest or weed control at 31 g/ha ([3]; 31 g ai/ha, Preemergence): 70% | pest or weed control at 125 g/ha [3, 19]: 80% | pest or weed control at 31 g/ha (Kochia (Kochia scoparia) [4]; 31 g ai/ha, Preemergence): 60% | pest or weed control at 125 g/ha (Kochia (Kochia scoparia) [4]; [19]): 60% | pest or weed control at 31 g/ha ([5]; 31 g ai/ha, Preemergence): 0% | pest or weed control at 125 g/ha [5, 19]: 0% | pest or weed control at 31 g/ha ([6]; 31 g ai/ha, Preemergence): 0% | pest or weed control at 125 g/ha [6, 19]: 40% | pest or weed control at 125 g/ha [7, 20]: 0% | pest or weed control at 31 g/ha [7, 21]: 0% | pest or weed control at 125 g/ha ([8]; 125 g ai/ha, visual rating about 10 d after treatment, read-out: Barnyardgrass plant response rating (0 to 100 scale, 0 no effect, 100 complete control)): 0% | pest or weed control at 31 g/ha ([8]; 31 g ai/ha, 0 is no effect, 100 is complete control, read-out: Barnyardgrass plant response rating (0 to 100 scale)): 0% | pest or weed control at 125 g/ha [9, 20]: 0% | pest or weed control at 31 g/ha [9, 21]: 0% | plant injury at 125 g/ha [10, 20]: 0% | plant injury at 31 g/ha [10, 21]: 0% | pest or weed control at 125 g/ha [11, 20]: 0% | pest or weed control at 31 g/ha [11, 21]: 0% | pest or weed control at 125 g/ha [12, 20]: 0% | pest or weed control at 31 g/ha [12, 21]: 0% | pest or weed control at 125 g/ha (Kochia (Kochia scoparia) [13]; [20]): 0% | pest or weed control at 31 g/ha (Kochia (Kochia scoparia) [13]; [21]): 0% | pest or weed control at 125 g/ha [14, 20]: 0% | pest or weed control at 31 g/ha [14, 21]: 0% | pest or weed control at 125 g/ha [15, 20]: 0% | pest or weed control at 31 g/ha [15, 21]: 0% | plant injury at 125 g/ha (corn (Zea mays); [20]): 0% | plant injury at 31 g/ha (corn (Zea mays); [21]): 0% | pest or weed control at 250 g/ha [16]: 0% | pest or weed control at 250 g/ha [17]: 0% | pest or weed control at 250 g/ha [18]: 0% | pest or weed control at 250 g/ha (rice (Oryra sativa)): 15%

From patent publication US12077503B2, “Substituted cyclic amides and their use as herbicides” (FMC CORPORATION, priority 2015, dated 2024)
